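GI50: concentration for 50% inhibition of growth. The concentration for full growth arrest is given as TGI.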
How the values were obtained:
Experiment in all cases: NCI tumour cell line growth inhibition, 384-well format
SK-MEL-2 melanoma = system: SK-MEL-2 melanoma
SW-620 colon = system: SW-620 colon
NCI-H522 lung = system: NCI-H522 lung
HOP-92 NSCLC = system: HOP-92 NSCLC
BT-549 breast = system: BT-549 breast
SK-MEL-28 melanoma = system: SK-MEL-28 melanoma
OVCAR-3 ovarian = system: OVCAR-3 ovarian
HS 578T breast = system: HS 578T breast
A549 NSCLC = system: A549 NSCLC
SNB-19 CNS = system: SNB-19 CNS
OVCAR-4 ovarian = system: OVCAR-4 ovarian
HCT-15 colon = system: HCT-15 colon
MDA-MB-435 melanoma = system: MDA-MB-435 melanoma
SK-MEL-5 melanoma = system: SK-MEL-5 melanoma
IGROV1 ovarian = system: IGROV1 ovarian
RXF 393 renal = system: RXF 393 renal
MCF7 breast = system: MCF7 breast
NCI-H226 lung = system: NCI-H226 lung
COLO 205 colon = system: COLO 205 colon
HCT-116 colon = system: HCT-116 colon
CAKI-1 renal = system: CAKI-1 renal
UACC-62 melanoma = system: UACC-62 melanoma
UACC-257 melanoma = system: UACC-257 melanoma
TK-10 renal = system: TK-10 renal
UO-31 renal = system: UO-31 renal
SF-539 CNS = system: SF-539 CNS
SN12C renal = system: SN12C renal
MOLT-4 leukemia = system: MOLT-4 leukemia
SF-295 CNS = system: SF-295 CNS
MALME-3M melanoma = system: MALME-3M melanoma
ACHN renal = system: ACHN renal
NCI-H23 lung = system: NCI-H23 lung
SK-OV-3 ovarian = system: SK-OV-3 ovarian
NCI-H460 NSCLC = system: NCI-H460 NSCLC
U251 glioblastoma = system: U251 glioblastoma
HOP-62 NSCLC = system: HOP-62 NSCLC
K-562 leukemia = system: K-562 leukemia
DU-145 prostate = system: DU-145 prostate
786-0 renal = system: 786-0 renal
HL-60(TB) leukemia = system: HL-60(TB) leukemia
KM12 colon = system: KM12 colon
EKVX NSCLC = system: EKVX NSCLC
M14 melanoma = system: M14 melanoma
A498 renal = system: A498 renal
OVCAR-5 ovarian = system: OVCAR-5 ovarian
SR leukemia = system: SR leukemia
MDA-MB-231 breast = system: MDA-MB-231 breast
PC-3 prostate = system: PC-3 prostate
OVCAR-8 ovarian = system: OVCAR-8 ovarian
HT29 colon = system: HT29 colon
SF-268 CNS = system: SF-268 CNS
T-47D breast = system: T-47D breast
NCI-H322M lung = system: NCI-H322M lung
MDA-MB-468 breast = system: MDA-MB-468 breast
SNB-75 CNS = system: SNB-75 CNS

Cc1sc2c(c1C)C(c1ccc(Cl)cc1)=N[C@@H](CC(=O)NCCCN1CCN(C)CC1)c1nnc(C)n1-2
GI50 (SK-MEL-2 melanoma): 0.0366 µM
TGI (SK-MEL-2 melanoma): 24.5 µM
GI50 (SW-620 colon): 23.3 µM
TGI (SW-620 colon): > 100 µM
GI50 (NCI-H522 lung): 0.0316 µM
TGI (NCI-H522 lung): 0.352 µM
GI50 (HOP-92 NSCLC): 0.486 µM
TGI (HOP-92 NSCLC): > 100 µM
GI50 (BT-549 breast): 0.238 µM
TGI (BT-549 breast): 11.4 µM
GI50 (SK-MEL-28 melanoma): 10.1 µM
TGI (SK-MEL-28 melanoma): > 100 µM
GI50 (OVCAR-3 ovarian): 0.148 µM
TGI (OVCAR-3 ovarian): > 100 µM
GI50 (HS 578T breast): 0.0381 µM
TGI (HS 578T breast): 11.4 µM
GI50 (A549 NSCLC): 0.854 µM
TGI (A549 NSCLC): > 100 µM
GI50 (SNB-19 CNS): > 100 µM
TGI (SNB-19 CNS): > 100 µM
GI50 (OVCAR-4 ovarian): 0.148 µM
TGI (OVCAR-4 ovarian): 1.63 µM
GI50 (HCT-15 colon): 13 µM
TGI (HCT-15 colon): > 100 µM
GI50 (MDA-MB-435 melanoma): 1.33 µM
TGI (MDA-MB-435 melanoma): > 100 µM
GI50 (SK-MEL-5 melanoma): 0.462 µM
TGI (SK-MEL-5 melanoma): 37.9 µM
GI50 (IGROV1 ovarian): 0.277 µM
TGI (IGROV1 ovarian): > 100 µM
GI50 (RXF 393 renal): 0.338 µM
TGI (RXF 393 renal): 2.9 µM
GI50 (MCF7 breast): 0.0242 µM
TGI (MCF7 breast): 4.88 µM
GI50 (NCI-H226 lung): 1.52 µM
TGI (NCI-H226 lung): > 100 µM
GI50 (COLO 205 colon): 0.257 µM
TGI (COLO 205 colon): > 100 µM
GI50 (HCT-116 colon): 0.407 µM
TGI (HCT-116 colon): > 100 µM
GI50 (CAKI-1 renal): 0.677 µM
TGI (CAKI-1 renal): > 100 µM
GI50 (UACC-62 melanoma): 0.0538 µM
TGI (UACC-62 melanoma): > 100 µM
GI50 (UACC-257 melanoma): 0.985 µM
TGI (UACC-257 melanoma): 21.9 µM
GI50 (TK-10 renal): 1.19 µM
TGI (TK-10 renal): > 100 µM
GI50 (UO-31 renal): 30.2 µM
TGI (UO-31 renal): > 100 µM
GI50 (SF-539 CNS): 0.312 µM
TGI (SF-539 CNS): 26.9 µM
GI50 (SN12C renal): > 100 µM
TGI (SN12C renal): > 100 µM
GI50 (MOLT-4 leukemia): 0.105 µM
TGI (MOLT-4 leukemia): 10.6 µM
GI50 (SF-295 CNS): 7.3 µM
TGI (SF-295 CNS): > 100 µM
GI50 (MALME-3M melanoma): 0.33 µM
TGI (MALME-3M melanoma): 26.4 µM
GI50 (ACHN renal): 10.2 µM
TGI (ACHN renal): > 100 µM
GI50 (NCI-H23 lung): 0.308 µM
TGI (NCI-H23 lung): 56.9 µM
GI50 (SK-OV-3 ovarian): 0.208 µM
TGI (SK-OV-3 ovarian): > 100 µM
GI50 (NCI-H460 NSCLC): 0.453 µM
TGI (NCI-H460 NSCLC): > 100 µM
GI50 (U251 glioblastoma): 2.49 µM
TGI (U251 glioblastoma): > 100 µM
GI50 (HOP-62 NSCLC): 0.448 µM
TGI (HOP-62 NSCLC): > 100 µM
GI50 (K-562 leukemia): 0.154 µM
TGI (K-562 leukemia): > 100 µM
GI50 (DU-145 prostate): 7.16 µM
TGI (DU-145 prostate): > 100 µM
GI50 ([…]-0 renal): 1.79 µM
TGI (786-0 renal): > 100 µM
GI50 (HL-60(TB) leukemia): 0.0128 µM
TGI (HL-60(TB) leukemia): 0.027 µM
GI50 (KM12 colon): 56 µM
TGI (KM12 colon): > 100 µM
GI50 (EKVX NSCLC): 31.5 µM
TGI (EKVX NSCLC): > 100 µM
GI50 (M14 melanoma): 0.404 µM
TGI (M14 melanoma): > 100 µM
GI50 (A498 renal): 3.31 µM
TGI (A498 renal): > 100 µM
GI50 (OVCAR-5 ovarian): 0.666 µM
TGI (OVCAR-5 ovarian): > 100 µM
GI50 (SR leukemia): 0.0711 µM
TGI (SR leukemia): > 100 µM
GI50 (MDA-MB-231 breast): 0.0674 µM
TGI (MDA-MB-231 breast): > 100 µM
GI50 (PC-3 prostate): 0.583 µM
TGI (PC-3 prostate): > 100 µM
GI50 (OVCAR-8 ovarian): 1.21 µM
TGI (OVCAR-8 ovarian): > 100 µM
GI50 (HT29 colon): 0.143 µM
TGI (HT29 colon): > 100 µM
GI50 (SF-268 CNS): 12 µM
TGI (SF-268 CNS): > 100 µM
GI50 (T-47D breast): 0.529 µM
TGI (T-47D breast): 71.6 µM
GI50 (NCI-H322M lung): 0.226 µM
TGI (NCI-H322M lung): > 100 µM
GI50 (MDA-MB-468 breast): 0.0484 µM
TGI (MDA-MB-468 breast): 0.729 µM
GI50 (SNB-75 CNS): 0.443 µM
TGI (SNB-75 CNS): > 100 µM

— PubChem BioAssay (NCI)
